Like-named read-outs stand apart in the source and are kept apart here.
Key:
[1] = molecular target: TEL-PDGFRβ fusion gene transfected cells (Ba/F3); assay: Suppression of proliferation of TEL-PDGFRβ fusion gene transfected Ba/F3 cells; format: cell-based, human; details: TEL-PDGFRβ expressing Ba/F3 cells, 72 hours, final concentration 0.1 to 10,000 nM; read-out: PDGFR β/BaF3 proliferation inhibition (IC50)
Text: 2. Preparation of Test Substance
4. Analysis of Measurement Results

[2] = molecular target: TEL-KIT fusion gene transfected cells (Ba/F3); assay: Suppression of proliferation of TEL-KIT fusion gene transfected Ba/F3 cells; details: read-out: KIT/BaF3 proliferation inhibition (IC50); TEL-KIT expressing Ba/F3 cells, 72 hours, final concentration 0.1 to 10,000 nM;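 note: viable cells quantified via formazan from tetrazolium reduction, inhibition scaled with 0.1% DMSO control as 0% and medium-only blank as 100%, IC50 from two-parameter logistic fit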
PDGFR-β = PDGFR-β (Homo sapiens (Human), UniProt P09619); assay: PDGFR-β tyrosine kinase inhibitory action (HTRF KinEASE-TK); format: biochemical; details: PDGFR-β enzyme 1 ng/μL, 30° C. for 30 minutes; read-out: PDGF-β IC50
Procedure, shortened: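 Recombinant PDGFR-β at 1 ng/μL final with TK substrate-3-biotin in a substrate solution containing 0.6 μM ATP; buffer 50 mM HEPES pH 7.0, 5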

[3] = tested on: pulmonary arterial smooth muscle cells; assay: Suppression of proliferation of pulmonary arterial smooth muscle cells (PDGF-BB stimulation, BrdU); format: cell-based; details: PASMC, read-out: Human normal PASMC proliferation suppression (PDGF stimulation_IC50)
Procedure, shortened: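 Test compound (final 3 to 10,000 nM) was added together with BrdU and PDGF-BB (final 10 ng/mL) to healthy human pulmonary artery smooth muscle cells held a day in 0.1% FBS. Proliferation was read after 1 day as anti-BrdU-detected BrdU incorporation.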

[4] = human PDGF-BB 10 ng/mL, BrdU uptake, final concentration 3 to 10,000 nM
[5] = 24 h, healthy human derived pulmonary arterial smooth muscle cells, human PDGF-BB 10 ng/mL stimulation, BrdU uptake after 1 day, test substance final concentration 3 to 10,000 nM

PDGFR-β, sequence (P09619 33-1106): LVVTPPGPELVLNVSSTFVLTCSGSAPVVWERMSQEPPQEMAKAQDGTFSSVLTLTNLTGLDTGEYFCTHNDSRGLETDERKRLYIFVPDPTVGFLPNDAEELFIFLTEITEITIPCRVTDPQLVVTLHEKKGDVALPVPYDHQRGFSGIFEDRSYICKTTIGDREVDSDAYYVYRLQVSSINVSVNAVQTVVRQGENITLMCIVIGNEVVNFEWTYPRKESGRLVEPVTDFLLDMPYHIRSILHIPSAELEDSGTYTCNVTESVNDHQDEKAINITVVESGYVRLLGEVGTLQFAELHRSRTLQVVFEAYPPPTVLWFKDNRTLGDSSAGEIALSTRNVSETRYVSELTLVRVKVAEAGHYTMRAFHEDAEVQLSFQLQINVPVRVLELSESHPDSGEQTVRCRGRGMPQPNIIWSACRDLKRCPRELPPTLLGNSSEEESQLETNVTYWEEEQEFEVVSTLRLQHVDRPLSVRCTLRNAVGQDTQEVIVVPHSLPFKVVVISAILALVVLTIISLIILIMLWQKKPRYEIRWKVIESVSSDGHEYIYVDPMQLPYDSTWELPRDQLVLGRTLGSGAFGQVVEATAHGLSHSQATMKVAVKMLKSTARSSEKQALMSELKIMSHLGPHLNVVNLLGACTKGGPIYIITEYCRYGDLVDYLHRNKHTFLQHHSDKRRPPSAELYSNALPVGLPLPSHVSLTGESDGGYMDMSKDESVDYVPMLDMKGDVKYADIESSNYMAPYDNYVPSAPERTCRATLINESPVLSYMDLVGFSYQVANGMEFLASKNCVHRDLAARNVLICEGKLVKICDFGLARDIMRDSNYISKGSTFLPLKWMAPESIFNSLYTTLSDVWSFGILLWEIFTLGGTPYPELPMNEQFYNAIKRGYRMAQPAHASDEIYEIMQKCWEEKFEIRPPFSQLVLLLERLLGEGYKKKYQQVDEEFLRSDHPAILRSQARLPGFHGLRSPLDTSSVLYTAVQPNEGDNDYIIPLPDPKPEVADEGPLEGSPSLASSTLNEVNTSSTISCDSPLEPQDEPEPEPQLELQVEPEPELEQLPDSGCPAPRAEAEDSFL
TEL-PDGFRβ fusion gene transfected cells (Ba/F3), sequence (P09619 33-1106 limits assumed, change not shown): as the sequence (P09619 33-1106) above
TEL-KIT fusion gene transfected cells (Ba/F3), sequence (P10721 26-976 limits assumed, change not shown): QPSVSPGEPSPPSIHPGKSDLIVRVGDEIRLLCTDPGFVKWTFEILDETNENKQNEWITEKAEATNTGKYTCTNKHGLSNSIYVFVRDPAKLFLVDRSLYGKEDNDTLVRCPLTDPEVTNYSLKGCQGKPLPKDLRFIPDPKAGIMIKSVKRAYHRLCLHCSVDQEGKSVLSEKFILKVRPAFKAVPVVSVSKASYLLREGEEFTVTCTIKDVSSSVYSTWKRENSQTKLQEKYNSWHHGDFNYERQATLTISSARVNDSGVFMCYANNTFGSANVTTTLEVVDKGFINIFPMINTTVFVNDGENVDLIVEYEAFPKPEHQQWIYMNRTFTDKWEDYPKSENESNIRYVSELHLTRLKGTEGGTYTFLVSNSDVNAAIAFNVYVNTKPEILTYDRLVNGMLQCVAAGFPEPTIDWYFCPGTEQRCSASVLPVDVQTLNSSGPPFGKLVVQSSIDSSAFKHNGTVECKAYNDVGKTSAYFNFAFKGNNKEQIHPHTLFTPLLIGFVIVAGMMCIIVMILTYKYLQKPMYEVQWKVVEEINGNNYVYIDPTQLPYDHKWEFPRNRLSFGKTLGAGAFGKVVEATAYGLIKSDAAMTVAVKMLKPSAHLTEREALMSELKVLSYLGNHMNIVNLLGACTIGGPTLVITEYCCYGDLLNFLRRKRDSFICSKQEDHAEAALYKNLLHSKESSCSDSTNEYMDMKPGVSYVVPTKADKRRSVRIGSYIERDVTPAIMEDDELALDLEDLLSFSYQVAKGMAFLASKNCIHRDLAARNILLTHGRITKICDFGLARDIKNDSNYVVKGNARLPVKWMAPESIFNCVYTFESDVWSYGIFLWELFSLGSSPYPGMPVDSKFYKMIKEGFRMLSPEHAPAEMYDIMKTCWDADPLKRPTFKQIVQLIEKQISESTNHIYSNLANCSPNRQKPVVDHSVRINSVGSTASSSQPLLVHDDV

Row | SMILES | IC50 [1] [nM] | IC50 [2] [nM] | IC50 (PDGFR-β) [nM] | IC50 [3, 4] [nM] | IC50 [3, 5] [nM]
1 | Cc1ccc(C(=O)N[C@H]2CCCC[C@@H]2O)cc1NC(=O)c1cnc(NC2CC2)s1 [Example 1, 2-(cyclopropylamino)-N-(5-{[(1S,2S)-2-hydroxycyclohexyl]carbamoyl}-2-methylphenyl)-1,3-thiazole-5-carboxamide] | 17 | 480 | 5.9 | 110 | 
2 | Cc1ccc(C(=O)N[C@H]2CCCC[C@@H]2O)cc1NC(=O)c1cncc(-c2ccccc2)c1 [Example 2, N-(5-{[(1S,2S)-2-hydroxycyclohexyl]carbamoyl}-2-methylphenyl)-5-phenylpyridine-3-carboxamide] | 3.6 | 200 | 22 | 23 | 
3 | Cc1ccc(C(=O)N[C@H]2CCCC[C@@H]2O)cc1NC(=O)c1cnc(CC2CC2)s1 [Example 3, 2-(cyclopropylmethyl)-N-(5-{[(1S,2S)-2-hydroxycyclohexyl]carbamoyl}-2-methylphenyl)-1,3-thiazole-5-carboxamide] | 1.4 | 620 | 82 | 30 | 
4 | Cc1ccc(C(=O)N[C@H]2CCCC[C@@H]2O)cc1NC(=O)c1cncc(NC2CC2)c1 [Example 4, 5-(cyclopropylamino)-N-(5-{[(1S,2S)-2-hydroxycyclohexyl]carbamoyl}-2-methylphenyl)pyridine-3-carboxamide] | 26 | 1500 | 4.9 | 220 | 
5 | Cc1ccc(C(=O)N[C@H]2CCCC[C@@H]2O)cc1NC(=O)c1cnc(-c2ccccc2)o1 [Example 5, N-(5-{[(1S,2S)-2-hydroxycyclohexyl]carbamoyl}-2-methylphenyl)-2-phenyl-1,3-oxazole-5-carboxamide] | 5.8 | 170 | 6.1 | 48 | 
6 | Cc1ccc(C(=O)N[C@H](CO)c2ccccc2)cc1NC(=O)c1cncc(-c2ccccc2)c1 [Example 6, N-(5-{[(1S)-2-hydroxy-1-phenylethyl]carbamoyl}-2-methylphenyl)-5-phenylpyridine-3-carboxamide] | 14 | 170 | 12 | 23 | 
7 | Cc1ccc(C(=O)N[C@H]2CCCC[C@@H]2O)cc1NC(=O)c1cncc(OC(C)C)c1 [Example 7, N-(5-{[(1S,2S)-2-hydroxycyclohexyl]carbamoyl}-2-methylphenyl)-5-[(propan-2-yl)oxy]pyridine-3-carboxamide] | 43 | 1900 | 170 | 150 | 
8 | Cc1ccc(C(=O)N[C@H]2CCCC[C@@H]2O)cc1NC(=O)c1cnc(NCC2CC2)s1 [Example 8, 2-[(cyclopropylmethyl)amino]-N-(5-{[(1S,2S)-2-hydroxycyclohexyl]carbamoyl}-2-methylphenyl)-1,3-thiazole-5-carboxamide] | 9.7 | 650 | 6 | 110 | 
9 | Cc1ccc(C(=O)N[C@H]2CCCC[C@@H]2O)cc1NC(=O)c1cncc(-c2ccc(Cl)cc2)c1 [Example 9, 5-(4-chlorophenyl)-N-(5-{[(1S,2S)-2-hydroxycyclohexyl]carbamoyl}-2-methylphenyl)pyridine-3-carboxamide] | 22 | 530 | 26 | 46 | 
10 | CCCc1ncc(C(=O)Nc2cc(C(=O)N[C@H]3CCCC[C@@H]3O)ccc2C)s1 [Example 10, N-(5-{[(1S,2S)-2-hydroxycyclohexyl]carbamoyl}-2-methylphenyl)-2-propyl-1,3-thiazole-5-carboxamide] | 25 | 660 | 220 | 140 | 
11 | Cc1ccc(C(=O)N[C@H]2CCCC[C@@H]2O)cc1NC(=O)c1cncc(-c2cccc(Cl)c2)c1 [Example 11, 5-(3-chlorophenyl)-N-(5-{[(1S,2S)-2-hydroxycyclohexyl]carbamoyl}-2-methylphenyl)pyridine-3-carboxamide] | 13 | 310 | 17 | 49 | 
12 | Cc1ccc(C(=O)N[C@H]2CCCC[C@@H]2O)cc1NC(=O)c1cncc(-c2ccccc2C)c1 [Example 12, N-(5-{[(1S,2S)-2-hydroxycyclohexyl]carbamoyl}-2-methylphenyl)-5-(2-methylphenyl)pyridine-3-carboxamide] | 35 | 800 | 170 | 65 | 
13 | Cc1ccc(C(=O)N[C@H]2CCCC[C@@H]2O)cc1NC(=O)c1cncc(-c2ccccc2Cl)c1 [Example 13, 5-(2-chlorophenyl)-N-(5-{[(1S,2S)-2-hydroxycyclohexyl]carbamoyl}-2-methylphenyl)pyridine-3-carboxamide] | 17 | 790 | 140 | 100 | 
14 | CCC[C@@H](CO)NC(=O)c1ccc(C)c(NC(=O)c2cncc(-c3ccccc3)c2)c1 [Example 14, N-(5-{[(2S)-1-hydroxypentan-2-yl]carbamoyl}-2-methylphenyl)-5-phenylpyridine-3-carboxamide] | 11 | 330 | 40 | 48 | 

The next lines start with results.

Row | IC50 [1] [nM] | IC50 [2] [nM] | IC50 (PDGFR-β) [nM] | SMILES | IC50 [3, 4] [nM] | IC50 [3, 5] [nM]
15 | 79 | 600 | 38 | Cc1ccc(C(=O)N[C@H]2CCCC[C@@H]2O)cc1C(=O)Nc1cncc(-c2ccccc2)c1 [Example 77, N^1-[(1S,2S)-2-hydroxycyclohexyl]-4-methyl-N^3-(5-phenylpyridin-3-yl)benzene-1,3-dicarboxamide] |  | 
16 | 12 | 2400 | 260 | Cc1ccc(C(=O)N[C@H]2CCCC[C@@H]2O)cc1OC(C)c1cncc(-c2ncccn2)c1 (stereo partly drawn) [Example 171, N-[(1S,2S)-2-hydroxycyclohexyl]-4-methyl-3-{1-[5-(pyrimidin-2-yl)pyridin-3-yl]ethoxy}benzamide] |  | 
17 | 50 | 870 | 27 | Cc1ccc(C(=O)N[C@H]2CCCC[C@@H]2O)cc1CCc1cncc(-c2ccccc2)c1 [Example 174, N-[(1S,2S)-2-hydroxycyclohexyl]-4-methyl-3-[2-(5-phenylpyridin-3-yl)ethyl]benzamide] |  | 
18 |  |  | 16 | Cc1ccc(C(=O)N[C@H]2c3ccccc3C[C@@H]2O)cc1/C=C(\F)c1cncc(CN2CCN(C)CC2)c1 [Example 200, 3-[(Z)-2-fluoro-2-{5-[(4-methylpiperazin-1-yl)methyl]pyridin-3-yl}ethenyl]-N-[(1S,2S)-2-hydroxy-2,3-dihydro-1H-inden-1-yl]-4-methylbenzamide] |  | 120
19 |  |  | 38 | Cc1ccc(C(=O)NCC(O)C(C)(C)C)cc1/C=C(\F)c1cncc(CN2CCN(C)CC2)c1 (stereo not drawn) [Example 201, 3-[(Z)-2-fluoro-2-{5-[(4-methylpiperazin-1-yl)methyl]pyridin-3-yl}ethenyl]-N-(2-hydroxy-3,3-dimethylbutyl)-4-methylbenzamide] |  | 120
20 |  |  | 77 | O=C(N[C@H]1CCCC[C@@H]1O)c1ccc(F)c(/C=C(\F)c2cnc(NCC3CC3)nc2)c1 [Example 202, 3-[(Z)-2-{2-[(cyclopropylmethyl)amino]pyrimidin-5-yl}-2-fluoroethenyl]-4-fluoro-N-[(1S,2S)-2-hydroxycyclohexyl]benzamide] |  | 33
21 |  |  | 61 | O=C(N[C@H]1CCCC[C@@H]1O)c1ccc(F)c(/C=C(\F)c2cnc(NC3CC3)nc2)c1 [Example 203, 3-{(Z)-2-[2-(cyclopropylamino)pyrimidin-5-yl]-2-fluoroethenyl}-4-fluoro-N-[(1S,2S)-2-hydroxycyclohexyl]benzamide] |  | 200
22 |  |  | 21 | Cc1nc(N)ncc1/C(F)=C/c1cc(C(=O)N[C@H]2CCCC[C@@H]2O)ccc1F [Example 204, 3-[(Z)-2-(2-amino-4-methylpyrimidin-5-yl)-2-fluoroethenyl]-4-fluoro-N-[(1S,2S)-2-hydroxycyclohexyl]benzamide] |  | 52
23 |  |  | 130 | CNc1ncc(/C(F)=C/c2cc(C(=O)N[C@H]3CCCC[C@@H]3O)ccc2F)cn1 [Example 205, 4-fluoro-3-{(Z)-2-fluoro-2-[2-(methylamino)pyrimidin-5-yl]ethenyl}-N-[(1S,2S)-2-hydroxycyclohexyl]benzamide] |  | 160
24 |  |  | 31 | Cc1ccc(C(=O)N[C@H]2CCCC[C@@H]2O)cc1/C=C(\F)c1cnc(N)cn1 [Example 206, 3-[(Z)-2-(5-aminopyrazin-2-yl)-2-fluoroethenyl]-N-[(1S,2S)-2-hydroxycyclohexyl]-4-methylbenzamide] | 92 | 
25 |  |  | 100 | O=C(N[C@H]1CCCC[C@@H]1O)c1ccc(F)c(/C=C(\F)c2cncc(F)c2)c1 [Example 207, 4-fluoro-3-[(Z)-2-fluoro-2-(5-fluoropyridin-3-yl)ethenyl]-N-[(1S,2S)-2-hydroxycyclohexyl]benzamide] | 99 | 

Reference: patent publication US12509424B2, “Compound and composition as PDGF receptor kinase inhibitor” (NIPPON SHINYAKU CO., LTD., priority 2019, dated 2025)
